Assay results from ChEMBL document CHEMBL1157977, “Musidunin and musiduol, insect antifeedants from Croton jatrophoides” (2006).

Assays:
Type in all cases: functional
[1] = tested on: Pectinophora gossypiella; assay: Antifeedant activity against Pectinophora gossypiella second-instar larvae assessed as drug level causing 95% protection of host plant by leaf disc assay relative to control
[2] = tested on: Pectinophora gossypiella; assay: Antifeedant activity against Pectinophora gossypiella second-instar larvae assessed as drug level causing 50% protection of host plant by leaf disc assay relative to control
[3] = tested on: Spodoptera frugiperda; assay: Antifeedant activity against Spodoptera frugiperda second-instar larvae assessed as drug level causing 50% protection of host plant by leaf disc assay relative to control
[4] = tested on: Spodoptera frugiperda; assay: Antifeedant activity against Spodoptera frugiperda second-instar larvae assessed as drug level causing 95% protection of host plant by leaf disc assay relative to control

Structure (SMILES)	Activity [1] [µg/mL]	Activity [2] [µg/mL]	Activity [3] [µg/mL]	Activity [4] [µg/mL]
COC(=O)C[C@H]1C(C)(C)O[C@@]23OCC4=C5[C@H](O)C[C@@H](c6ccoc6)[C@]5(C)[C@@H](OC(C)=O)[C@H](OC(C)=O)[C@@H]4[C@@]12CCC3=O	10	3		
CC(=O)O[C@H]1[C@H](OC(C)=O)[C@]2(C)[C@@H](C(=O)C[C@H]2c2ccoc2)[C@]2(C)[C@H](O)C[C@H]3C(C)(C)O[C@]4(O)C(=O)CC[C@]34[C@@H]12	20	4	2	36
